Here are results for 13 compounds from ChEMBL document CHEMBL5608163, “Structure modification of anoplin for fighting resistant bacteria” (Eur J Med Chem, 2024).

Converted amounts (≈) assume the structure as drawn. Square brackets hold non-standard residues; d marks the D form. Peptide text beside a SMILES is read from it. 2Nal = N[C@@H](Cc1ccc2ccccc2c1)C(=O)O; hIle = CC[C@H](C)C[C@H](N)C(=O)O; Cha = N[C@@H](CC1CCCCC1)C(=O)O

One data set relates to Erythrocyte. Description: Hemolytic activity in mouse Red blood cells incubated for 1 hr by microplate reader assay. As to conditions: erythrocyte, 1 h. The data set is classed as toxicity, cell-based.
The subject of a further data set is Escherichia coli. As to the kind of experiment: Antibacterial activity against Escherichia coli ATCC 25922 assessed as reduction in microbial growth incubated for 16 to 20 hrs by CLSI protocol based Muller Hinton broth assay. The data set is classed as functional. The note with it: time 16-20 hrs.
Another data set relates to Pseudomonas aeruginosa. Description: Antibacterial activity against Pseudomonas aeruginosa ATCC 27853 assessed as reduction in microbial growth incubated for 16 to 20 hrs by CLSI protocol based Muller Hinton broth assay. The data set is classed as functional. The note with it: time 16-20 hrs.
A further data set concerns Enterococcus faecium. Description: Antibacterial activity against vancomycin resistant Enterococcus faecium ATCC 700221 assessed as inhibition of bacterial growth incubated for 48 hrs by CLSI-based broth microdilution assay. The data set is classed as functional. On the technique in general: In broth dilution the organism is exposed to a series of concentrations in liquid medium.

In the next data set the test system is Staphylococcus aureus. Description: Antibacterial activity against methicillin-resistant Staphylococcus aureus ATCC 33591 assessed as reduction in bacterial growth incubated for 18 hrs by agar dilution method. The data set is classed as functional. A general note: In agar dilution, organisms are placed on agar that contains the substance at set levels.
Data set [1] is described as follows: Hemolytic activity in human RBC assessed as hemolysis measured after 24 hrs. The data set is classed as toxicity, cell-based, Erythrocyte. The note with it: red blood cells.

On to `CC[C@H](C)[C@H](NC(=O)[C@H](CCCNC(=N)N)NC(=O)[C@@H](CCCCN)NC(=O)[C@H](CC(C)C)NC(=O)[C@H](CC(C)C)NC(=O)CN)C(=O)N[C@@H](CCCCN)C(=O)N[C@@H](C(=O)N[C@@H](CC(C)C)C(=O)N[C@@H](CC(C)C)C(N)=O)[C@H](C)O`, for which the HC10 in the data set on Erythrocyte is over 300 µM.

In the case of `CC[C@H](C)[C@H](NC(=O)[C@H](Cc1ccccc1)NC(=O)[C@H](CCCCN)NC(=O)[C@H](CC(C)C)NC(=O)[C@H](CC(C)C)NC(=O)CN)C(=O)N[C@@H](CCCCN)C(=O)N[C@@H](Cc1c[nH]c2ccccc12)C(=O)N[C@@H](CC(C)C)C(=O)N[C@@H](CC(C)C)C(N)=O` (H-GLLKFIKWLL-NH2), the MIC in the data set on Escherichia coli is 22.1 µM; with Pseudomonas aeruginosa it was 256 µM; in the data set with Enterococcus faecium, 0.8 µM (≈ 0.984 µg/mL); with Staphylococcus aureus, 7.4 µM (≈ 9.1 µg/mL). For the same compound, the HC50 at 24 h in data set [1] worked out at 0.6 µM.

Take `CC(C)C[C@H](NC(=O)[C@H](CC(C)C)NC(=O)[C@@H](NC(=O)[C@H](CCCCN)NC(=O)[C@H](Cc1ccc2ccccc2c1)NC(=O)[C@H](CCCNC(=N)N)NC(=O)[C@H](CCCCN)NC(=O)[C@H](CC(C)C)NC(=O)[C@H](CC(C)C)NC(=O)CN)[C@@H](C)O)C(N)=O` (H-GLLKR[2Nal]KTLL-NH2): the MIC came out at 28.4 µM with Escherichia coli, 28.4 µM in the data set with Pseudomonas aeruginosa, 28.4 µM (≈ 35.1 µg/mL) with Enterococcus faecium and 85.3 µM (≈ 106 µg/mL) in the data set with Staphylococcus aureus. Also, the HC50 at 24 h in data set [1] is over 500 µM.

Regarding `CC(C)C[C@H](NC(=O)[C@H](CC(C)C)NC(=O)[C@@H](NC(=O)[C@H](CCCCN)NC(=O)[C@H](CC1CCCCC1)NC(=O)[C@H](CCCNC(=N)N)NC(=O)[C@H](CCCCN)NC(=O)[C@H](CC(C)C)NC(=O)[C@H](CC(C)C)NC(=O)CN)[C@@H](C)O)C(N)=O` (H-GLLKR[Cha]KTLL-NH2), the MIC came to 28.4 µM in the data set with Escherichia coli, 15.8 µM in the data set on Pseudomonas aeruginosa, 6 µM (≈ 7.16 µg/mL) with Enterococcus faecium and 28.4 µM (≈ 33.9 µg/mL) in the data set on Staphylococcus aureus. Moreover, in data set [1], the HC50 at 24 h was 304 µM.

`CC[C@H](C)C[C@H](NC(=O)[C@H](CCCNC(=N)N)NC(=O)[C@H](CCCCN)NC(=O)[C@H](CC(C)C)NC(=O)[C@H](CC(C)C)NC(=O)CN)C(=O)N[C@@H](CCCCN)C(=O)N[C@H](C(=O)N[C@@H](CC(C)C)C(=O)N[C@@H](Cc1ccc2ccccc2c1)C(N)=O)[C@@H](C)O` (H-GLLKR[hIle]KTL[2Nal]-NH2): the MIC with Escherichia coli is 22.1 µM; in the data set with Pseudomonas aeruginosa, 9.5 µM; with Enterococcus faecium, 9.5 µM (≈ 11.9 µg/mL); with Staphylococcus aureus, 28.4 µM (≈ 35.5 µg/mL). Further, the HC50 at 24 h in data set [1] worked out at 18 µM.

`CC[C@H](C)C[C@H](NC(=O)[C@H](CCCNC(=N)N)NC(=O)[C@H](CCCCN)NC(=O)[C@H](CC(C)C)NC(=O)[C@H](CC(C)C)NC(=O)CN)C(=O)N[C@@H](CCCCN)C(=O)N[C@H](C(=O)N[C@@H](CC(C)C)C(=O)N[C@@H](CC1CCCCC1)C(N)=O)[C@@H](C)O` (H-GLLKR[hIle]KTL[Cha]-NH2): the minimal inhibitory concentration (MIC) in the data set on Escherichia coli turned out to be 12.5 µM; in the data set with Pseudomonas aeruginosa it was 28.4 µM; in the data set with Enterococcus faecium it was 26.3 µM (≈ 31.8 µg/mL); with Staphylococcus aureus, 28.4 µM (≈ 34.3 µg/mL). In addition, in data set [1], the HC50 at 24 h came out at 317 µM.

In the case of `CC[C@H](C)C[C@H](NC(=O)[C@H](CCCNC(=N)N)NC(=O)[C@H](CCCCN)NC(=O)[C@H](CC(C)C)NC(=O)[C@H](CC(C)C)NC(=O)CN)C(=O)N[C@@H](CCCCN)C(=O)N[C@H](C(=O)N[C@@H](Cc1ccc2ccccc2c1)C(=O)N[C@@H](CC(C)C)C(N)=O)[C@@H](C)O` (H-GLLKR[hIle]KT[2Nal]L-NH2), the MIC in the data set with Escherichia coli worked out at 15.8 µM; with Pseudomonas aeruginosa, 28.4 µM; in the data set with Enterococcus faecium, 8.8 µM (≈ 11 µg/mL); in the data set on Staphylococcus aureus, 28.4 µM (≈ 35.5 µg/mL). In addition, the HC50 at 24 h in data set [1] was 149 µM.

`CC[C@H](C)C[C@H](NC(=O)[C@H](CCCNC(=N)N)NC(=O)[C@H](CCCCN)NC(=O)[C@H](CC(C)C)NC(=O)[C@H](CC(C)C)NC(=O)CN)C(=O)N[C@@H](CCCCN)C(=O)N[C@H](C(=O)N[C@@H](CC1CCCCC1)C(=O)N[C@@H](CC(C)C)C(N)=O)[C@@H](C)O` (H-GLLKR[hIle]KT[Cha]L-NH2): the MIC came to 28.4 µM in the data set on Escherichia coli, 28.4 µM in the data set with Pseudomonas aeruginosa, 28.4 µM (≈ 34.3 µg/mL) with Enterococcus faecium and 47.4 µM (≈ 57.2 µg/mL) in the data set with Staphylococcus aureus. Further, the HC50 at 24 h in data set [1] came to 234 µM.

On to `CC[C@H](C)[C@H](NC(=O)[C@H](Cc1c[nH]c2ccccc12)NC(=O)[C@H](CCCCN)NC(=O)[C@H](CC(C)C)NC(=O)[C@H](CC(C)C)NC(=O)CN)C(=O)N[C@@H](CCCCN)C(=O)N[C@@H](CCCCN)C(=O)N[C@@H](CC(C)C)C(=O)N[C@@H](CC(C)C)C(N)=O` (H-GLLKWIKKLL-NH2), for which the MIC worked out at 3.2 µM with Escherichia coli, 9.5 µM in the data set on Pseudomonas aeruginosa, 3.2 µM (≈ 3.87 µg/mL) in the data set with Enterococcus faecium and 2.5 µM (≈ 3.03 µg/mL) in the data set on Staphylococcus aureus. For the same compound, the HC50 at 24 h in data set [1] was 11.6 µM.

Regarding `CC[C@H](C)[C@H](NC(=O)[C@H](CCCNC(=N)N)NC(=O)[C@H](CCCCN)NC(=O)[C@H](Cc1ccc2ccccc2c1)NC(=O)[C@H](CC(C)C)NC(=O)CN)C(=O)N[C@@H](CCCCN)C(=O)N[C@H](C(=O)N[C@@H](CC(C)C)C(=O)N[C@@H](CC(C)C)C(N)=O)[C@@H](C)O` (H-GL[2Nal]KRIKTLL-NH2), the MIC in the data set on Escherichia coli stood at 28.4 µM; with Pseudomonas aeruginosa, 9.5 µM; in the data set on Enterococcus faecium, 9.5 µM (≈ 11.8 µg/mL); in the data set on Staphylococcus aureus it was 28.4 µM (≈ 35.1 µg/mL). Further, the HC50 at 24 h in data set [1] worked out at 172 µM.

In the case of `CC[C@H](C)C[C@H](NC(=O)[C@H](CCCNC(=N)N)NC(=O)[C@H](CCCCN)NC(=O)[C@H](CC1CCCCC1)NC(=O)[C@H](CC(C)C)NC(=O)CN)C(=O)N[C@@H](CCCCN)C(=O)N[C@H](C(=O)N[C@@H](CC(C)C)C(=O)N[C@@H](CC(C)C)C(N)=O)[C@@H](C)O` (H-GL[Cha]KR[hIle]KTLL-NH2), the MIC with Escherichia coli was determined as 28.4 µM; in the data set on Pseudomonas aeruginosa, 28.4 µM; in the data set on Enterococcus faecium, 28.4 µM (≈ 34.3 µg/mL); in the data set with Staphylococcus aureus it was 28.4 µM (≈ 34.3 µg/mL). Besides, the HC50 at 24 h in data set [1] is 436 µM.

On to `CC[C@H](C)[C@H](NC(=O)[C@H](CCCNC(=N)N)NC(=O)[C@H](CCCCN)NC(=O)[C@H](CC(C)C)NC(=O)[C@H](Cc1ccc2ccccc2c1)NC(=O)CN)C(=O)N[C@@H](CCCCN)C(=O)N[C@H](C(=O)N[C@@H](CC(C)C)C(=O)N[C@@H](CC(C)C)C(N)=O)[C@@H](C)O` (H-G[2Nal]LKRIKTLL-NH2), for which the MIC in the data set with Escherichia coli turned out to be 15.8 µM; in the data set with Pseudomonas aeruginosa it was 9.5 µM; in the data set on Enterococcus faecium it was 15.8 µM (≈ 19.6 µg/mL); with Staphylococcus aureus, 15.8 µM (≈ 19.6 µg/mL). Further, the HC50 at 24 h in data set [1] was found to be 52.8 µM.

As to `CC[C@H](C)C[C@H](NC(=O)[C@H](CCCNC(=N)N)NC(=O)[C@H](CCCCN)NC(=O)[C@H](CC(C)C)NC(=O)[C@H](CC1CCCCC1)NC(=O)CN)C(=O)N[C@@H](CCCCN)C(=O)N[C@H](C(=O)N[C@@H](CC(C)C)C(=O)N[C@@H](CC(C)C)C(N)=O)[C@@H](C)O` (H-G[Cha]LKR[hIle]KTLL-NH2), the MIC came to 25 µM with Escherichia coli, 28.4 µM in the data set with Pseudomonas aeruginosa, 15.8 µM (≈ 19.1 µg/mL) with Enterococcus faecium and 85.3 µM (≈ 103 µg/mL) with Staphylococcus aureus. The HC50 at 24 h in data set [1] turned out to be 195 µM.

Broadly, the MIC is the smallest concentration in the dilution series that meets the test's criterion for growth inhibition. The HC50 is the concentration that lyses half of the red blood cells.
